{"source": "paper PMC4589371", "about": "“Molecular Binding Mechanism of TtgR Repressor to Antibiotics and Antimicrobials” (PLoS ONE, 2015)", "key": {"[1]": {"biological_target": "TtgR (TtgR^WT) (Pseudomonas putida, UniProt Q9AIU0, H114A)", "assay": "biochemical", "from_the_text": "(§1) isothermal titration calorimetry, one set of sites on TtgR (TtgR^WT)"}, "[2]": {"biological_target": "TtgR (TtgR^WT) (Pseudomonas putida, UniProt Q9AIU0, N110A)", "assay": "biochemical", "from_the_text": "as §1"}, "[3]": {"biological_target": "TtgR (TtgR^WT) (Pseudomonas putida, UniProt Q9AIU0, E78A)", "assay": "biochemical", "from_the_text": "as §1"}, "[4]": {"biological_target": "T1, TtgR (TtgR^WT) (Pseudomonas putida, UniProt Q9AIU0)", "T1 construct": "homodimer", "assay": "isothermal titration calorimetry, one set of sites", "format": "binding"}, "[5]": {"system": "TtgR N110A (Pseudomonas putida DOT-T1E)", "assay": "EMSA", "details": "5 uM phloretin; EMSA: 10 mM Tris-HCl pH 7.0, 250 mM NaCl, 10 mM Mg acetate, 10 mM KCl, 5% glycerol, 0.1 mM EDTA, 5 mM DTT, 20 ug/ml poly(dI-dC), 200 ug/ml BSA; 10 min at 30 C …"}, "[6]": {"system": "TtgR E78A (Pseudomonas putida DOT-T1E)", "assay": "EMSA", "details": "5 uM naringenin; EMSA: 10 mM Tris-HCl pH 7.0, 250 mM NaCl, 10 mM Mg acetate, 10 mM KCl, 5% glycerol, 0.1 mM EDTA, 5 mM DTT, 20 ug/ml poly(dI-dC), 200 ug/ml BSA; 10 min at 30 C …"}, "[7]": {"system": "TtgR H114A (Pseudomonas putida DOT-T1E)", "assay": "EMSA", "details": "5 uM naringenin; EMSA: 10 mM Tris-HCl pH 7.0, 250 mM NaCl, 10 mM Mg acetate, 10 mM KCl, 5% glycerol, 0.1 mM EDTA, 5 mM DTT, 20 ug/ml poly(dI-dC), 200 ug/ml BSA; 10 min at 30 C …"}}, "data": [{"compound": "O=C(N[C@H](CO)[C@H](O)c1ccc([N+](=O)[O-])cc1)C(Cl)Cl", "note": "[chloramphenicol]", "values": [{"measurement": "Kd", "setting": "[1]", "value": "8.5 ± 0.5", "unit": "µM"}, {"measurement": "Kd", "setting": "[2]", "value": "15.6 ± 2", "unit": "µM"}, {"measurement": "Kd", "setting": "[3]", "value": "18.5 ± 1", "unit": "µM"}, {"measurement": "Kd", "setting": "[4]", "value": "5.6 ± 0.4", "unit": "µM"}]}, {"compound": "O=C(CCc1ccc(O)cc1)c1c(O)cc(O)cc1O", "note": "[phloretin]", "values": [{"measurement": "Kd", "setting": "[1]", "value": "1.3 ± 0.1", "unit": "µM"}, {"measurement": "Kd", "setting": "[2]", "value": "1 ± 0.1", "unit": "µM"}, {"measurement": "Kd", "setting": "[3]", "value": "0.7 ± 0.1", "unit": "µM"}, {"measurement": "Kd", "setting": "[4]", "value": "1.5 ± 0.2", "unit": "µM"}]}, {"compound": "ttgABC-ttgR intergenic region (operator), 189 bp", "values": [{"measurement": "binding signal (% DNA dissociated)", "setting": "[5]", "value": 66}, {"measurement": "binding signal (% DNA released)", "setting": "[6]", "value": 30}, {"measurement": "binding signal (% DNA released)", "setting": "[7]", "value": 30}]}]}
